From patent US5599953A, “C-glycoside analogues of N-(4-hydroxyphenyl)retinamide-O-glucuronide” (The Ohio State Research Foundation, priority 1995, dated 1997)
Like-named read-outs stand apart in the source and are kept apart here.

Experiments:
[1] = test system: MCF-7 human mammary cell tumor culture; details: Bhatnagar et al.; cited from earlier work
β-glucuronidase [2] = target: T1, β-glucuronidase (Homo sapiens, UniProt P08236); assay: Stability toward β-glucuronidase mediated hydrolysis; type: in vitro ADME; details: β-glucuronidase
T1 sequence (P08236 23-651): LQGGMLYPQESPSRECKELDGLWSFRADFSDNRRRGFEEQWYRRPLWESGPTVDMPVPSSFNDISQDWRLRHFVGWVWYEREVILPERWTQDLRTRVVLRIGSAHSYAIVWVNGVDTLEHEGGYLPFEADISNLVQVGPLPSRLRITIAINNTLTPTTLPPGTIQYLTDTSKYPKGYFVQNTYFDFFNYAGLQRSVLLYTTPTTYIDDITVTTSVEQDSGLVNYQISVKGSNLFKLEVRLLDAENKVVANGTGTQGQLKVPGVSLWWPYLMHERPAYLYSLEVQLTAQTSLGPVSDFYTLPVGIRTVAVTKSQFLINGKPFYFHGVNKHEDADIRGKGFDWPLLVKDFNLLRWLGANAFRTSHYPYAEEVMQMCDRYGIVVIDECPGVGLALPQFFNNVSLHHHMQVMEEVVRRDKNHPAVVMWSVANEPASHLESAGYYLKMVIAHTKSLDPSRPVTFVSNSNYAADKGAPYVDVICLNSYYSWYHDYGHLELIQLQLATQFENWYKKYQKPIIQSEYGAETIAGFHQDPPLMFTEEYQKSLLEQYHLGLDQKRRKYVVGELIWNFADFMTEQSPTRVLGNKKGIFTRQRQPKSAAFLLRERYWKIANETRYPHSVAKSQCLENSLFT
Protocol: Similarly 1-(D-glucopyranosyluronosyl) retinamide and RAG were evaluated for their stability toward β-glucuronidase medicated hydrolysis under the same conditions as described above.

mRARβ = target: T2, mRARβ (Mus musculus, UniProt P22605); assay: Drug competition with (3H)retinoic acid binding, mRARβ; details: read-out: percent reduction of binding of the (3H)retinoic acid, mRARβ; 1 μM drug; 5 nM [3H]RA
T2 construct: made in house; host or cells: Spodoptera frugiperda insect cells, baculovirus (whole cell extract)
T2 sequence (P22605 1-448 isoform P22605-3): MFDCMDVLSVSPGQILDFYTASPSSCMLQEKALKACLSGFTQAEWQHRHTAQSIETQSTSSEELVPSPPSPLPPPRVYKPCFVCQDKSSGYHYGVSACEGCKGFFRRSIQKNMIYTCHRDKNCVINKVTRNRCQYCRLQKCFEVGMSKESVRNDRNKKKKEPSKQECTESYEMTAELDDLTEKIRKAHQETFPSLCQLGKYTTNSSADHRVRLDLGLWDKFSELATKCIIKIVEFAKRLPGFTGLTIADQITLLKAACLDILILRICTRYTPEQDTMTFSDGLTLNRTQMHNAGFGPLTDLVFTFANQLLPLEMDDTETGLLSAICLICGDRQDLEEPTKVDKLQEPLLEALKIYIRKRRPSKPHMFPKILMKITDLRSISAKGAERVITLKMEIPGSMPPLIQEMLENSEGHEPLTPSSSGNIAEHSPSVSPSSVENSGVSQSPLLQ

β-glucuronidase [3] = target: T1, β-glucuronidase; details: background statement; cited from earlier work
[4] = Acid stability, 0.1N methanolic HCl at 37° C. for 2 hours; type: physicochemical
Protocol: To determine the stability of the C-glucopyranosiduronate linkage towards acidic conditions, samples of 4-HPR-O-glucuronide, 4-(retinamido)phenyl-C-glucuronide and 4-(retinamido)benzyl-C-glucuronide were treated with 0.1N methanolic HCl at 37° C. for 2 hours.

[5] = background statement; cited from earlier work
mRARα = target: T3, mRARα (Mus musculus, UniProt P11416); assay: Drug competition with (3H)retinoic acid binding, mRARα; details: read-out: percent reduction of binding of the (3H)retinoic acid, mRARα
T3 construct: made in house; host or cells: Spodoptera frugiperda insect cells, baculovirus (whole cell extract)
T3 sequence (P11416 1-462): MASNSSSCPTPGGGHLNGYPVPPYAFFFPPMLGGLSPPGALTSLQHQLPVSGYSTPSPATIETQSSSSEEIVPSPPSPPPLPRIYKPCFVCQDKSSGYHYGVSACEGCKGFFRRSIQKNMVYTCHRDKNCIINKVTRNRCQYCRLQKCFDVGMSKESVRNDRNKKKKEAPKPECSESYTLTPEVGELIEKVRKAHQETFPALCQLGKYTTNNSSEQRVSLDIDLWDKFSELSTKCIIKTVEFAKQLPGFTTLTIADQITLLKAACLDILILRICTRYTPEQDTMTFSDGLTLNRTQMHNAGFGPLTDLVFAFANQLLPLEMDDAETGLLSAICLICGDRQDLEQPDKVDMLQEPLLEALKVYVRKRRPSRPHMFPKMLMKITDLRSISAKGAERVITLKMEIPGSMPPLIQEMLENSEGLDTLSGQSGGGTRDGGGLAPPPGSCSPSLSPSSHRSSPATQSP

mRARγ = target: T4, mRARγ (Mus musculus, UniProt P18911); assay: Drug competition with (3H)retinoic acid binding, mRARγ; details: read-out: percent reduction of binding of the (3H)retinoic acid, mRARγ; 1 μM drug; 5 nM [3H]RA
T4 construct: made in house; host or cells: Spodoptera frugiperda insect cells, baculovirus (whole cell extract)
T4 sequence (P18911 1-458): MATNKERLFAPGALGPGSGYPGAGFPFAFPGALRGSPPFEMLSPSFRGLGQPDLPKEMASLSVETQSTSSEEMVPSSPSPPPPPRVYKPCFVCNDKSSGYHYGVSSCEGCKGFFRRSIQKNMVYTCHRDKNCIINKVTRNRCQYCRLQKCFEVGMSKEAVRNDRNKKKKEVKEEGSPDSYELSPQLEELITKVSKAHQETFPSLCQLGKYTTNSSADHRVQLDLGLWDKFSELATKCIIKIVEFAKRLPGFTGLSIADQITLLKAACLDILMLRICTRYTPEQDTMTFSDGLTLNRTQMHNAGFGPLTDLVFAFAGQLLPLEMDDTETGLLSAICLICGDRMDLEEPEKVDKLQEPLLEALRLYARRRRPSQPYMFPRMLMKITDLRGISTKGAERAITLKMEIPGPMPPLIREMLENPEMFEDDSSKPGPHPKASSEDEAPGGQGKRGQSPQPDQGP

[6] = test system: cultured human breast cancer cells; details: Bhatnagar et al.; cited from earlier work
cancer = details: literature; cited from earlier work
[7] = test system: carcinogen-induced rat mammary tumors; details: cited from earlier work
MCF-7 cells = assay: Growth inhibition of MCF-7 human mammary tumor cells; type: cell-based; details: Homo sapiens, MCF7, 168 h, 7 days, read-out: ED50 for growth inhibition of MCF-7 cells
Protocol: The antiproliferative activity of the drugs in MCF-7 human mammary tumor cell culture models were determined.
The MCF-7 cells were obtained originally from the Michigan Cancer Foundation. The cells were routinely grown as monolayers in T-25 plastic tissue culture flasks from Falcon, in Oxnard, Calif. containing 5.0 mL of B-10 medium consisting of Minimum Essential Medium (MEM, Earle's Base) supplemented with 1.0 mM MEM non-essential amino acid, 2.0 mM 1-glutamine,10% fetal bovine serum (FBS), and antibiotics. Culture conditions included a humidified atmosphere of 5% CO2 at 37° C. One-half of the medium was replenished twice a week. Cells were harvested by trypsinization upon confluency. All variables were evaluated in triplicate.
For the growth inhibition assay the MCF-7 cells were plated in 24-well plates at a density of 1.5×10^4 cells/cm^2. […] Control cultures were treated with an equivalent volume of absolute ethanol. On day 7 the cells were harvested by trypsinization and viability was assessed by trypan blue exclusion according to Ueda, H. et al. Cancer 1980, 46, 2203-2209. Total cell counts were obtained using a hemocytometer as well as a the Coulter Counter.

[8] = test system: DMBA-Induced Rat Mammary Tumors; assay: Effect on progression of DMBA-induced rat mammary tumors; type: in vivo; details: 1 mmol/Kg in diet
Excerpt: The control rats received DMBA intubation only and AIN-76A rat chow.

[9] = test system: hamster tracheal in vitamin A deficient epithelial tissue; details: Newton et al.; cited from earlier work

Row | inhibition at 1 µM (mRARβ) [%] | inhibition at 1 µM (mRARα; 1 μM drug, 5 nM [3H]RA) [%] | inhibition at 1 µM (mRARγ) [%] | IC50 (MCF-7 cells; Assay 1) [nM] | IC50 (MCF-7 cells; Assay 2) [nM] | IC50 (MCF-7 cells; Assay 3) [nM] | SMILES | antiproliferative activity and toxicity vs 4-HPR [1] | hydrolysis by β-glucuronidase (β-glucuronidase [2]) | hydrolysis by β-glucuronidase (β-glucuronidase [3]) | in vivo half life (β-glucuronidase [3]) | acid hydrolysis (stability) [4] | stability in acidic media [5] | cytotoxicity [6] | cancer preventive activity (cancer) | breast cancer chemopreventive activity combined with calcium glucarate [7] | tumor latency ([8]; 15 mg DMBA oral) [days] | tumor incidents ([8]; 110 days post intubation) [%] | tumor number/rat ([8]; 110 days post intubation) [tumors per rat] | reversal of metaplastic condition [9] | inhibition at 1 µM (mRARα) [%]
1 | 4 | 14 | 7 | – | – | – | CC1=C(/C=C/C(C)=C/C=C/C(C)=C/C(=O)Nc2ccc(O[C@@H]3O[C@H](C(=O)O)[C@@H](O)[C@H](O)[C@H]3O)cc2)C(C)(C)CCC1 [4-HPR-O-glucuronide, N-(4-hydroxyphenyl)retinamide-O-glucuronide] | greater antiproliferative activity and less toxicity | is hydrolysed to glucuronic acid and the aglycone by β-glucuronidase | also by the enzyme β-glucuronidase | quite limited | had undergone substantial hydrolysis of the ether linkage | hydrolyzed in acidic media | – | – | – | – | – | – | – | –
2 | 5 | 18 | 7 | 2800 | 1500 | 33000 | CC1=C(/C=C/C(C)=C/C=C/C(C)=C/C(=O)Nc2ccc(O)cc2)C(C)(C)CCC1 [Example 4-HPR, N-(4-hydroxyphenyl) retinamide, reference compound] | – | – | – | – | – | – | significant cytotoxicity | displays chemopreventive activity in breast cancer | synergistically exerts an increased breast cancer chemopreventive activity | – | – | – | – | –

Row | SMILES | inhibition at 1 µM (mRARβ) [%] | inhibition at 1 µM (mRARα; 1 μM drug, 5 nM [3H]RA) [%] | inhibition at 1 µM (mRARγ) [%] | IC50 (MCF-7 cells; Assay 1) [nM] | IC50 (MCF-7 cells; Assay 2) [nM] | IC50 (MCF-7 cells; Assay 3) [nM] | antiproliferative activity and toxicity vs 4-HPR [1] | hydrolysis by β-glucuronidase (β-glucuronidase [2]) | hydrolysis by β-glucuronidase (β-glucuronidase [3]) | in vivo half life (β-glucuronidase [3]) | acid hydrolysis (stability) [4] | stability in acidic media [5] | cytotoxicity [6] | cancer preventive activity (cancer) | breast cancer chemopreventive activity combined with calcium glucarate [7] | tumor latency ([8]; 15 mg DMBA oral) [days] | tumor incidents ([8]; 110 days post intubation) [%] | tumor number/rat ([8]; 110 days post intubation) [tumors per rat] | reversal of metaplastic condition [9] | inhibition at 1 µM (mRARα) [%]
3 | CC1=C(/C=C/C(C)=C/C=C/C(C)=C/C(=O)O)C(C)(C)CCC1 [retinoic acid, reference compound] | – | – | 100 | – | – | – | – | – | – | – | – | – | – | display cancer preventive activity | – | 49 | 83 | 1.17 | can reverse the metaplastic condition of hamster tracheal in vitamin A deficient epithelial tissue | 100
